Some test systems named below: SW-620 colon; U251 CNS; LOX IMVI melanoma; HOP-92 NSCLC; HOP-62 NSCLC; A498 renal; UO-31 renal; HL-60(TB) leukemia; SR leukemia; HS 578T breast.
Holding throughout (assay): inhibition of tumour cell growth, NCI panel, 48 h

Values joined by “and” are separate entries in the source; they are usually repeats but may differ in a detail not shown here. Equal values may be shown once.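 The compound was tested at five concentrations on cells cultured in 96-well plates, with a 48-hour exposure period. GI50 is the concentration that inhibits growth by half. TGI marks complete inhibition of growth.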 Bounds are passed on as bounds.

As for `C=C1CC[C@@H]2[C@](C)(COC(C)=O)[C@H](OC(C)=O)CC[C@@]2(C)[C@@H]1CC(Nc1ccc(S(=O)(=O)NC(C)=O)cc1)C1=CCOC1=O` (stereo not given in full), the GI50 in the assay on SW-620 colon was 1.61 µM; in the assay with U251 CNS, 3.49 µM; in the assay with LOX IMVI melanoma, 1.25 µM; in the assay on HOP-92 NSCLC, 6.5 µM; with HOP-62 NSCLC it was 10.8 µM; with A498 renal, 10.3 µM. Besides, the GI50 in the assay on UO-31 renal is 3.71 µM; in the assay with HL-60(TB) leukemia, 2.45 µM; with SR leukemia it was 0.991 µM; in the assay on HS 578T breast it was 8.45 µM. For the same molecule, the TGI with SW-620 colon came to 3.58 µM; with U251 CNS, 12 µM; with LOX IMVI melanoma, 2.42 µM; in the assay on HOP-92 NSCLC it was 15.8 µM; in the assay with HOP-62 NSCLC, 21.1 µM; in the assay on A498 renal, 20.1 µM. The TGI with UO-31 renal was determined as 13.2 µM; with HL-60(TB) leukemia, 12 µM; in the assay with SR leukemia, 18.1 µM; in the assay on HS 578T breast, 38.8 µM.

Turning to `Cc1cc(S(=O)(=O)Nc2nc3ccccc3o2)c(SCc2ccccc2)cc1Cl`, the GI50 in the assay on SW-620 colon is 20.6 µM; in the assay on U251 CNS, 16.1 µM; in the assay on LOX IMVI melanoma it was 14.9 µM; in the assay on HOP-92 NSCLC it was 4.65 µM; in the assay on HOP-62 NSCLC it was 28.5 µM; in the assay on A498 renal, 23.1 µM. Besides, the GI50 was 32.9 µM with UO-31 renal, 36.9 µM with HL-60(TB) leukemia, 11.5 µM with SR leukemia and 29.5 µM with HS 578T breast. The TGI in the assay with SW-620 colon was 56.4 µM; in the assay with U251 CNS, 31 µM; in the assay with LOX IMVI melanoma, 34.8 µM; in the assay with HOP-92 NSCLC, 20.9 µM; with HOP-62 NSCLC, more than 100 µM; in the assay on A498 renal, 43.3 µM. Also, the TGI in the assay with UO-31 renal was more than 100 µM; in the assay with HL-60(TB) leukemia it was more than 100 µM; with SR leukemia, more than 100 µM; in the assay on HS 578T breast it was 78.9 µM.

For `CCN(CCCN(C)C)Cc1cc(I)cc(C)c1O`, the GI50 with SW-620 colon was 17.1 µM; in the assay on U251 CNS, 21.2 µM; in the assay on LOX IMVI melanoma it was 18.3 µM; in the assay on HOP-92 NSCLC it was 10.8 µM; in the assay on HOP-62 NSCLC, 17 µM; in the assay with A498 renal, 20.4 µM. The GI50 is 35.6 µM in the assay with UO-31 renal, 20 µM with HL-60(TB) leukemia, 1.04 µM with SR leukemia and 15.3 µM in the assay on HS 578T breast. Besides, the TGI stood at 31.9 µM in the assay with SW-620 colon; 43.6 µM in the assay on U251 CNS; 34.6 µM in the assay with LOX IMVI melanoma; 52.3 µM with HOP-92 NSCLC; 34.4 µM in the assay with HOP-62 NSCLC; 38.6 µM with A498 renal. The TGI in the assay with UO-31 renal is more than 100 µM; with HL-60(TB) leukemia it was 41.5 µM; with SR leukemia, 14.5 µM; in the assay with HS 578T breast it was 33.1 µM.

On to `CN(c1ncccc1CNc1nc(Nc2ccc3c(c2)CC(=O)N3)ncc1C(F)(F)F)S(C)(=O)=O`, for which the GI50 was 1.56 µM and 2.89 µM in the assay with SW-620 colon; 2.17 µM and 2.76 µM in the assay with U251 CNS; 1.31 µM and 1.68 µM in the assay on LOX IMVI melanoma; 0.0987 µM and 0.192 µM in the assay with HOP-92 NSCLC; 2.58 µM and 2.59 µM in the assay with HOP-62 NSCLC; 2.81 µM in the assay with A498 renal. Moreover, the GI50 was 2.88 µM and 2.82 µM with UO-31 renal; 2.02 µM and 1.38 µM in the assay with HL-60(TB) leukemia; 0.606 µM and 1.54 µM in the assay on SR leukemia; 1.73 µM and 2.47 µM in the assay with HS 578T breast. The TGI with SW-620 colon was more than 32.7 µM; in the assay with U251 CNS, more than 47.3 µM; in the assay with LOX IMVI melanoma, 17.4 µM and 9.4 µM; in the assay on HOP-92 NSCLC it was 1.85 µM and 5.99 µM; with HOP-62 NSCLC it was more than 30.1 µM; with A498 renal, 7.14 µM. Moreover, the TGI in the assay with UO-31 renal was more than 28.7 µM; in the assay on HL-60(TB) leukemia, 5.72 µM and 5.51 µM; with SR leukemia, 4.91 µM and 5.26 µM; with HS 578T breast, 7.9 µM and > 10 µM.

Take `COc1ccc(C(c2cc(OC)c(OC)c(OC)c2)n2ccnc2)cc1O` (stereo not given): the GI50 in the assay on SW-620 colon was 0.387 µM; in the assay on U251 CNS it was 0.391 µM; in the assay with LOX IMVI melanoma, 0.525 µM; in the assay on HOP-92 NSCLC, 28.6 µM; with HOP-62 NSCLC it was 0.516 µM; in the assay on A498 renal it was 0.304 µM. Besides, the GI50 in the assay with UO-31 renal was 0.883 µM; in the assay on HL-60(TB) leukemia it was 0.229 µM; in the assay with SR leukemia, 0.182 µM; with HS 578T breast, 0.414 µM. For the same molecule, the TGI is more than 100 µM with SW-620 colon; more than 100 µM in the assay on U251 CNS; more than 100 µM in the assay with LOX IMVI melanoma; more than 100 µM in the assay with HOP-92 NSCLC; more than 100 µM with HOP-62 NSCLC; 0.941 µM with A498 renal. In addition, the TGI is more than 100 µM with UO-31 renal, 0.628 µM with HL-60(TB) leukemia, more than 100 µM with SR leukemia and more than 100 µM in the assay with HS 578T breast.

Turning to `COc1ccc2c(c1OC)C[C@@H]1c3c(cc4c(c3-2)OCO4)CCN1C`, the TGI with SW-620 colon is more than 100 µM; in the assay with U251 CNS, more than 100 µM; in the assay with LOX IMVI melanoma it was 29.1 µM; with HOP-92 NSCLC, 68.1 µM; in the assay with HOP-62 NSCLC, more than 100 µM; in the assay on A498 renal it was 63.5 µM. Besides, the TGI is 45.4 µM in the assay on UO-31 renal, 27.2 µM in the assay with HL-60(TB) leukemia, 54.3 µM with SR leukemia and more than 100 µM with HS 578T breast.

As to `COc1ccc(C2CC(c3cccc(Nc4ccnc5cc(Cl)ccc45)c3)=NN2C=O)cc1` (stereo not given), the GI50 in the assay on SW-620 colon is 0.333 µM; in the assay on U251 CNS it was 0.435 µM; with LOX IMVI melanoma it was 0.584 µM; in the assay on HOP-92 NSCLC it was more than 100 µM; in the assay on HOP-62 NSCLC, 0.747 µM; in the assay on A498 renal, 0.325 µM. For the same molecule, the GI50 in the assay with UO-31 renal is 0.989 µM; in the assay with HL-60(TB) leukemia it was 0.257 µM; with SR leukemia it was 0.271 µM; in the assay on HS 578T breast it was 0.367 µM. Besides, the TGI was more than 100 µM in the assay on SW-620 colon; 3.98 µM in the assay on U251 CNS; 6.8 µM in the assay with LOX IMVI melanoma; more than 100 µM in the assay with HOP-92 NSCLC; 27.6 µM in the assay on HOP-62 NSCLC; 4.2 µM in the assay with A498 renal. The TGI is more than 100 µM in the assay on UO-31 renal, 0.774 µM in the assay on HL-60(TB) leukemia, 2.04 µM with SR leukemia and 16.9 µM in the assay on HS 578T breast.

`COc1cc(Nc2nc3cc(N)cc(N)c3nc2-c2ccccc2)cc(OC)c1OC`: the GI50 was 24.1 µM in the assay with SW-620 colon; 24.6 µM in the assay on U251 CNS; 18.5 µM in the assay on LOX IMVI melanoma; 2.73 µM in the assay with HOP-92 NSCLC; 16.3 µM in the assay with HOP-62 NSCLC; 31.3 µM with A498 renal. In addition, the GI50 in the assay on UO-31 renal is 15.1 µM; in the assay with HL-60(TB) leukemia it was 6.65 µM; with SR leukemia, 3.31 µM; with HS 578T breast, 15 µM. In addition, the TGI was more than 100 µM in the assay on SW-620 colon; more than 100 µM in the assay on U251 CNS; 49 µM in the assay with LOX IMVI melanoma; 21 µM in the assay on HOP-92 NSCLC; 34.3 µM in the assay with HOP-62 NSCLC; more than 100 µM in the assay on A498 renal. Also, the TGI with UO-31 renal came out at 90.3 µM; in the assay on HL-60(TB) leukemia it was 23.3 µM; with SR leukemia, 16 µM; in the assay on HS 578T breast it was 78.1 µM.

Values taken from PubChem BioAssay (NCI).
